One test relates to Maize armyworm egg. Nature of the test: Egg hatchability inhibition, leaf-immersing method. The format is in vivo, Mythimna separate (Walker). As to conditions: read-out: Hatchability inhibition. Here is the method:
(§1) Maize armyworm egg: The trial was carried out using a leaf-immersing method. A mother solution of the technical material with a mass concentration of 1 wt % was prepared with acetone, and diluted with deionized water comprising 0.1 wt % Tween 80 to trial concentrations for later use. 1.2% agar was poured into a Petri dish with a diameter of 9 cm and cooled for later use. Two-leaf one-core corn seedlings were placed in the Petri dish when adult maize armyworms were at the great oviposition phase. After 1 day, the […] seedlings were taken out. Corn seedlings with 20-30 eggs in it were selected and immersed in the agent liquid for 10 s and then taken out, and the corn seedlings were placed in a Petri dish and moisturized. Each treatment was repeated 3 times. A 0.1 wt % aqueous solution of Tween 80 was used to set up a blank control, and the blank control was placed in an insect-raising chamber at 25° C. After larvae of the blank control group hatched, the trial results were checked, and the hatchability was calculated.

A further test has as its system Diamondback moth egg. Nature of the test: Egg hatchability inhibition, leaf-immersing method. The format is in vivo, Plutella xylostella (Linnaeus). The note with it: Plutella xylostella, read-out: Hatchability inhibition. Here is the method: as §1, with “Diamondback moth” for “Maize armyworm”, “radish” for “corn”, “diamondback moths” for “maize armyworms”, “Radish” for “Corn”

Test [1] concerns Tetranychus cinnabarinus eggs. The test is described as follows: Toxicity to Tetranychus cinnabarinus eggs in different areas. The format is in vivo. As to conditions: for LC50: Tetranychus cinnabarinus. Here is the method:
(§2) Mite egg hatching inhibitory activity determination trial: The trial was carried out using a leaf-immersing method. A mother solution of the technical material with a mass concentration of 1 wt % was prepared with acetone for later use, and diluted with deionized water comprising 0.1 wt % Tween 80 to a series of trial concentrations. A 1.2% aqueous agar was poured into a Petri dish with a diameter of 9 cm and cooled for later use. Twenty adult mites were selected and inoculated onto pepper leaves. After 2 days, the adult mites were removed, and the number of mite eggs is counted. The leaves with eggs were immersed in the prepared agent liquid for 10 s and then taken out. The leaves were placed in a Petri dish and moisturized. Each treatment was repeated 3 times. A 0.1 wt % aqueous solution of Tween 80 was used to set up a blank control. These treatments were placed in a biochemical incubator at 24±1° C. After mite eggs of the blank control group hatched, the trial results were checked, and the hatchability rate was calculated.
The procedure was the same as above except that the assay for toxicity to Tetranychus cinnabarinus eggs was carried out in different areas.

The next test has as its system Bradysia odoriphaga egg. Nature of the test: Egg toxicity, agent liquid quantitative dropwise addition method. The note with it: 120 h, read-out: Hatchability inhibition. The format is in vivo. On the procedure:
Bradysia odoriphaga egg: The trial was carried out by using an agent liquid quantitative dropwise addition method. A mother solution of the technical material with a mass concentration of 1 wt % was prepared with acetone for later use, and a series of trial concentrations were prepared using a 0.1 wt % aqueous solution of Tween 80. Bradysia odoriphaga eggs aged 2 days were picked up. Each treatment unit comprised 20 eggs. The eggs were placed in a Petri dish with a diameter of 9 cm with filter paper spread in it. 600 μL of agent liquid was dropwise added with a pipette onto the eggs, and 600 μL of agent liquid onto the filter paper. Each treatment was repeated 3 times. A 0.1 wt % aqueous solution of Tween 80 was used to set up a blank control, and the blank control was placed in a biochemical incubator at 24±1° C. after treatment. Five days after application, the trial results were checked.

The subject of test [2] is Tetranychus cinnabarinus Adult female mite. The test is described as follows: Oviposition inhibitory activity determination trial. The format is in vivo. The note with it: 144 h, read-out: 6-day oviposition inhibition rate; for inhibition at 1 µg/mL: trial concentration 1 mg/L; for inhibition at 5 µg/mL: trial concentration 5 mg/L. Here is the method: (§3) Oviposition inhibitory activity determination trial: A mother solution of the technical material with a mass concentration of 1 wt % was prepared with acetone for later use, and diluted with deionized water comprising 0.1 wt % Tween 80 to a series of trial concentrations. Fresh leaves of cowpea seedlings were selected and cut into round leaf disks with a diameter of about 5.0 cm. The leaf disks were placed in a plastic Petri dish with filter paper and degreased cotton spread in it. 5 mg/L and 10 mg/L treatment agents were applied to the back of the leaves with cotton swabs. An aqueous solution with the same solvent proportion was used as a control agent. After the agent liquid was naturally evaporated under indoor conditions, about 20 female adult mites aged 3-5 days were inoculated onto each leaf. Each treatment was repeated 5 times, about 100 mites were treated The mites were kept in the same conditions, and observed under a binocular dissecting microscope every 24 h over 6 consecutive days, and the number of laid eggs was recorded for each treatment. After the trial ended, the oviposition inhibition rate was calculated for each treatment.

For test [3], the system named is Tetranychus urticae Adult female mite. Described as above. As to conditions: 144 h, read-out: 6-day oviposition inhibition rate; for inhibition at 1 µg/mL: trial concentration 1 mg/L; for inhibition at 5 µg/mL: trial concentration 5 mg/L. The format is in vivo. On the procedure: as §3
For test [4], the system named is Tetranychus viennensis Adult female mite. The test is described as above. The format is in vivo. As to conditions: 144 h, read-out: 6-day oviposition inhibition rate; for inhibition at 1 µg/mL: trial concentration 1 mg/L; for inhibition at 5 µg/mL: trial concentration 5 mg/L. Here is the method: as §3
For test [5], the system named is Panonychus citri Adult female mite. The test is described as above. The format is in vivo. The note with it: 144 h, read-out: 6-day oviposition inhibition rate; for inhibition at 1 µg/mL: trial concentration 1 mg/L; for inhibition at 5 µg/mL: trial concentration 5 mg/L. Here is the method:
as §3

The test system of the next test is Tetranychus urticae egg. Nature of the test: Mite egg hatching inhibitory activity (toxicity to mite eggs), leaf-immersing method. The format is in vivo. Here is the method:
as §2

Test [6] relates to Tetranychus viennensis egg. Described as above. The format is in vivo. On the procedure: as §2
The test system of test [7] is Tetranychus cinnabarinus egg. Described as above. The format is in vivo. On the procedure:
as §2

The next test relates to Panonychus citri egg. Described as above. The format is in vivo. Here is the method:
as §2

The test system of a further test is Bemisia tabaci egg. The test is described as follows: Egg hatching inhibition, potting spray method. The format is in vivo. As to conditions: read-out: Hatchability inhibition. On the procedure:
Bemisia tabaci egg: A potting spray method was adopted. A mother solution of the technical material with a mass concentration of 1 wt % was prepared with acetone for later use, and a series of trial concentrations were prepared using a 0.1 wt % aqueous solution of Tween 80. Potted pepper plants growing at the same pace were selected. Every 6 potted pepper plants were counted as a treatment unit and placed in an insect-raising cage. About 500 silverleaf whiteflies were inoculated into each insect-raising cage and normally kept for 2 days, and then the adults were removed. After the agent was prepared, it was used to spray the pepper plants. After the spraying, the plants were placed in the insect-raising cages. A 0.1 wt % aqueous solution of Tween 80 was used to set up a blank control, and the blank control was placed in an insect-raising chamber at 25° C. After […] nymphs of the blank control group hatched, the number of nymphs in each treatment unit was counted, and the hatching inhibition rate was calculated.

The values that follow come from US12599133B2, “Use of trifluenfuronate for prevention and treatment of agricultural pest insects and mites” (SHANDONG UNITED PESTICIDE INDUSTRY CO., LTD., priority 2020, dated 2026).

Converted amounts (≈) assume the structure as drawn. Read-outs that look alike come from different tables or passages of the source.

`O=C(NC(=O)c1c(F)cccc1F)Nc1cc(Cl)c(OC(F)(F)C(F)C(F)(F)F)cc1Cl` (stereo not shown) [Lufenuron]: the inhibition at 5 µg/mL in the test on Maize armyworm egg (Maize armyworm egg, trial concentration 5 mg/L) was determined as 22.6%; in the test on Diamondback moth egg (Diamondback moth egg, trial concentration 5 mg/L), 59.1%. Further, the inhibition at 20 µg/mL worked out at 58.4% in the test with Maize armyworm egg (Maize armyworm egg, trial concentration 20 mg/L) and 75% in the test on Diamondback moth egg (Diamondback moth egg, trial concentration 20 mg/L).

As to `COc1ccccc1C1OC(=O)CC1C(=O)OCCC(F)=C(F)F` (stereo not shown) [Trifluenfuronate, trifluenfuronate], the LC50 was found to be 3.89 µg/mL (≈ 11.3 µM) in test [1] (area Fangcun, Taian); 3.92 µg/mL (≈ 11.4 µM) in [1] (area Jiyang, Jinan); 3.79 µg/mL (≈ 11 µM) in [1] (area Qihe, Dezhou); 4.11 µg/mL (≈ 11.9 µM) in test [1] (area Shouguang, Weifang); 3.69 µg/mL (≈ 10.7 µM) in the test with Tetranychus urticae egg; 3.66 µg/mL (≈ 10.6 µM) in test [6]. In addition, the figures for the LC50 (in test [7]; in the test with Panonychus citri egg) were 4.12 µg/mL (≈ 12 µM) and 3.28 µg/mL (≈ 9.53 µM), respectively. Besides, the LC90 in [1] (area Fangcun, Taian) turned out to be 21.95 µg/mL (≈ 63.8 µM); in test [1] (area Jiyang, Jinan), 20.94 µg/mL (≈ 60.8 µM); in test [1] (area Qihe, Dezhou), 15.62 µg/mL (≈ 45.4 µM); in [1] (area Shouguang, Weifang), 19.37 µg/mL (≈ 56.3 µM); in the test with Tetranychus urticae egg, 18.01 µg/mL (≈ 52.3 µM); in test [6], 12.44 µg/mL (≈ 36.1 µM). Further, the results for the LC90 (in test [7]; in the test on Panonychus citri egg) were 20.77 µg/mL (≈ 60.3 µM) and 17.97 µg/mL (≈ 52.2 µM), respectively. Also, the inhibition at 5 µg/mL in the test with Maize armyworm egg stood at 83.7%; in the test with Bradysia odoriphaga egg (Bradysia odoriphaga), 81.3%; in test [2], 77.7%; in test [3], 77%; in [4], 75.3%; in test [5], 77.8%. Also, the inhibition at 5 µg/mL in the test on Diamondback moth egg amounted to 73.6%; in the test on Bemisia tabaci egg (Bemisia tabaci) it was 83.3%. Besides, the inhibition at 20 µg/mL with Maize armyworm egg stood at 92.3%; in the test with Bradysia odoriphaga egg (Bradysia odoriphaga) it was 95.3%; in the test with Diamondback moth egg, 88.3%; with Bemisia tabaci egg (Bemisia tabaci) it was 98.7%. The inhibition at 1 µg/mL was determined as 47.3% in test [2], 50.4% in test [3], 48.7% in test [4] and 51% in test [5].

Take `CCOc1cc(C(C)(C)C)ccc1C1COC(c2c(F)cccc2F)=N1` (stereo not shown) [Etoxazole]: the LC50 was determined as 15.4 µg/mL (≈ 42.8 µM) in [1] (area Fangcun, Taian); 5.37 µg/mL (≈ 14.9 µM) in [1] (area Jiyang, Jinan); 26 µg/mL (≈ 72.3 µM) in test [1] (area Qihe, Dezhou); 7.21 µg/mL (≈ 20.1 µM) in test [1] (area Shouguang, Weifang); 17.8 µg/mL (≈ 49.5 µM) in the test on Tetranychus urticae egg; 17.6 µg/mL (≈ 49 µM) in test [6]. In addition, the figures for the LC50 (in test [7]; in the test on Panonychus citri egg) were 18.5 µg/mL (≈ 51.6 µM) and 21.6 µg/mL (≈ 60 µM), respectively. Besides, the LC90 amounted to 168.95 µg/mL (≈ 470 µM) in [1] (area Fangcun, Taian); 62.95 µg/mL (≈ 175 µM) in test [1] (area Jiyang, Jinan); 162.82 µg/mL (≈ 453 µM) in [1] (area Qihe, Dezhou); 69.57 µg/mL (≈ 194 µM) in [1] (area Shouguang, Weifang); 135.01 µg/mL (≈ 376 µM) in the test on Tetranychus urticae egg; 88.51 µg/mL (≈ 246 µM) in [6]. Besides, the LC90 in [7] is 124.23 µg/mL (≈ 346 µM); in the test on Panonychus citri egg, 123.59 µg/mL (≈ 344 µM). Besides, the inhibition at 1 µg/mL came to 35.7% in test [2], 35.9% in [3], 27% in test [4] and 37.6% in test [5]. Also, the inhibition at 5 µg/mL was determined as 66.8% in [2], 69.2% in test [3], 60.8% in test [4] and 65.4% in test [5].

`CC(COc1ccc(Oc2ccccc2)cc1)Oc1ccccn1` (stereo not shown) [Pyriproxyfen]: the inhibition at 50 µg/mL in the test on Bradysia odoriphaga egg (Bradysia odoriphaga egg, trial concentration 50 mg/L, five days after application) came out at 42.4%. Further, the inhibition at 100 µg/mL in the test with Bradysia odoriphaga egg (Bradysia odoriphaga egg, trial concentration 100 mg/L, five days after application) stood at 61.6%. In the test with Bemisia tabaci egg (Bemisia tabaci egg, trial concentration 5 mg/L), the inhibition at 5 µg/mL turned out to be 43.7%. Further, in the test with Bemisia tabaci egg (Bemisia tabaci egg, trial concentration 20 mg/L), the inhibition at 20 µg/mL was determined as 86.8%.
